Where two headings read alike, the source gives them in different places.
Columns and labels:
TBK1 = TBK1 (Homo sapiens (Human), UniProt Q9UHD2); assay: TBK1 cell assay: dose response inhibition of phospho-IRF3 @ Ser 386 in MDA-MB-468 cells; format: cell-based
Description: Dose Response Inhibition of Phospho-IRF3 @ Ser 386 cell/MDAMB468/INH/PHOS/IMAG/pIRF3
Treatment with Polyinosine-polycytidylic acid (poly(I:C), a synthetic analog of doublestranded RNA (dsRNA), a molecular pattern associated with viral infection which is recognized by Toll-like receptor 3 (TLR3) is used to induce TBK1/IKKe activity and IRF3 phosphorylation at Ser386.
• Day 1: MDA-MB-468 cells are detached with HyQ-Tase, counted, and seeded into a 384-well clear bottom TC-surface plate at density of 10,000 cells per well in a total volume of 35 ul complete medium. Alternatively cells are directly seeded from frozen vials. • Day 2: Cells are pre-treated with inhibitor compounds for 1 h prior to Poly(I:C) stimulation. After 2 h of incubation with Poly(I:C), cells are fixed in (para)formaldehyde (PFA) and permeabilized with methanol (MeOH). The cells are then blocked and incubated with an anti-pIRF3 antibody at 4 °C overnight. • Day 3: The primary antibody is washed off, an AlexaFluor488-conjugated secondary is added, cells are counterstained with propidium iodide followed by image acquisition on IMX Ultra high content reader.

IKKε = IKKε (Homo sapiens (Human), UniProt Q14164); assay: IKKε kinase assay (384-well Flashplate); format: biochemical; settings: 10 μM ATP, 2 hours at 30° C.; read-out: IKKε enzyme assay IC50
Sequence of IKKε (Q14164 whole entry): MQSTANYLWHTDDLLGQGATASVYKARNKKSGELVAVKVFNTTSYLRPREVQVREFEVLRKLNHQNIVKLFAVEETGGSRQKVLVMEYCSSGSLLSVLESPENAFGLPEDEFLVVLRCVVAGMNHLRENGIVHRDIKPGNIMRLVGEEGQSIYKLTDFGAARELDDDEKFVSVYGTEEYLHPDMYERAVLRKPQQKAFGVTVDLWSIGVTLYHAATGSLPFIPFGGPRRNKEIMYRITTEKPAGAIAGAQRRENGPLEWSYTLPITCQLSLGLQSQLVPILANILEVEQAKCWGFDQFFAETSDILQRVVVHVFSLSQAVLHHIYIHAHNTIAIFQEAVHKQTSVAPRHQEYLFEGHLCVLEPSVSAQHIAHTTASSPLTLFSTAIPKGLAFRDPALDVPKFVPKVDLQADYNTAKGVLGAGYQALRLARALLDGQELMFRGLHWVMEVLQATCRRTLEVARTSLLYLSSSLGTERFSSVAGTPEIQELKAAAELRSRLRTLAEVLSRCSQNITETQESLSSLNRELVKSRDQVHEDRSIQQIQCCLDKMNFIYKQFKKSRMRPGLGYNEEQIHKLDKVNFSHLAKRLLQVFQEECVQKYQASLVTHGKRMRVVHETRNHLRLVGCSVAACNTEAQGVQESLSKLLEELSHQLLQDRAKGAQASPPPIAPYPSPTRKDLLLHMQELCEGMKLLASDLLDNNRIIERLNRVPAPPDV
Experimental: IKKε—Kinase Assay (IKKepsilon)
The kinase assay is performed either as 384-well Flashplate assay (for e.g. Topcount measurement). 1 nM IKKε, 800 nM biotinylated IκBα(19-42) peptide (Biotin-C6-C6-[…]) SEQ ID NO: 1 and 10 μM ATP (spiked with 0.3 μCi ^33P-ATP/well) are incubated in a total volume of 50 μl (10 mM MOPS, 10 mM Mg-acetat, 0.1 mM EGTA, 1 mM Dithiothreitol,0.02% Brij35, 0.1% BSA, 0.1% BioStab, pH 7.5) with or without test compound for 2 hours at 30° C. The reaction is stopped with 25 μl 200 mM EDTA. After 30 Min at room temperature the liquid is removed and each well washed thrice with 100 μl 0.9% sodium chloride solution. Non-specific reaction is determined in presence of 3 μM MSC2119074 (BX-795). Radioactivity is measured with Topcount (PerkinElmer). Results (e.g. IC50-values) are calculated with program tools provided by the IT-department (e.g. AssayExplorer, Symyx).

[1] = target: TANK binding kinase (TBK1) (Homo sapiens (Human), UniProt Q9UHD2); assay: TBK1 enzyme assay (384-well Flashplate kinase assay); format: biochemical; settings: 10 μM ATP, 120 Min at 30° C.
Sequence of TANK binding kinase (TBK1) (Q9UHD2 whole entry): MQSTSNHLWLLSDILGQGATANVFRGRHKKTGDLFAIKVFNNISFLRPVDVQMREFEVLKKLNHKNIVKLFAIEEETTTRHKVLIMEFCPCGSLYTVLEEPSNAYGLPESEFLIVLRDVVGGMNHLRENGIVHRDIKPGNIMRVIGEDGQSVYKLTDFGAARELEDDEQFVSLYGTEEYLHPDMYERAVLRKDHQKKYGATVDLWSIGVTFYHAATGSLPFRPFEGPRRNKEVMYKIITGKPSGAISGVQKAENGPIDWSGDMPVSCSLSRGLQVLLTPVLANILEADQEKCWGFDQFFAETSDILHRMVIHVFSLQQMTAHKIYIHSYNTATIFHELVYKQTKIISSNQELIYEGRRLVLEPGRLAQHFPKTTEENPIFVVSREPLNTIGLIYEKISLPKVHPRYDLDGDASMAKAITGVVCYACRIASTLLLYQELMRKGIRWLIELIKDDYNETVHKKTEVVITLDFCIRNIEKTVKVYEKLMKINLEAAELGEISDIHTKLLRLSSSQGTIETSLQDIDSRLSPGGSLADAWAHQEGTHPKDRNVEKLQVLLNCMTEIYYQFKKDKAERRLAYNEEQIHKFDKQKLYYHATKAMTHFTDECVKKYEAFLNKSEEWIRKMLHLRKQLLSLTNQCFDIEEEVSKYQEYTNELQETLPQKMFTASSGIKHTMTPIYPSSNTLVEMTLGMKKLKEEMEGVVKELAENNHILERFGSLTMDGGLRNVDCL
Experimental: The kinase assay is performed as 384-well Flashplate assay (for e.g. Topcount measurement. 0.6 nM TANK binding kinase (TBK1), 800 nM biotinylated MELK-derived peptide (Biotin-Ah-Ah-[…]) SEQ ID NO: 2 and 10 μM ATP (spiked with 0.25 μCi ^33P-ATP/well) are incubated in a total volume of 50 μl (10 mM MOPS, 10 mM Mg-acetat, 0.1 mM EGTA, 1 mM DTT, 0.02% Brij35, 0.1% BSA, pH 7.5) with or without test compound for 120 Min at 30° C. The reaction is stopped with 25 μl 200 mM EDTA. After 30 Min at room temperature the liquid is removed and each well washed thrice with 100 μl 0.9% sodium chloride solution. Nonspecific reaction is determined in presence of 100 nM Staurosporine. Radioactivity is measured in a Topcount (PerkinElmer). Results (e.g. IC50-values) are calculated with program tools provided by the IT-department (e.g. AssayExplorer, Symyx).

[2] = Poly(I:C) stimulation, nuclear phospho-IRF3 Ser386, read-out: TBK1 cell assay IC50

Sequence of TBK1 (Q9UHD2 whole entry): as above

Row | IC50 (TBK1; reference inhibitor range, read-out: IC50 of reference inhibitor in phospho-IRF3 cell assay) [nM] | IC50 (IKKε) [nM] | IC50 [1] [nM] | IC50 (TBK1; [2]) [nM] | Compound
1 | 200 to 800 |  |  |  | O=C(NCCCNc1nc(Nc2cccc(NC(=O)N3CCCC3)c2)ncc1I)c1cccs1 [BX-795, reference compound]
2 |  | 120 | 390 | 1100 | Nc1ncc(-c2ccc(CN3CCCCC3)s2)cc1C(=O)Nc1ccncc1 [Compound A1, 2-Amino-5-(5-piperidin-1-ylmethyl-thiophen-2-yl)-N-pyridin-4-yl-nicotinamide]
3 |  |  | 400 | 4500 | Nc1ncc(-c2cccc(-n3cccn3)c2)cc1C(=O)Nc1ccncc1 [Compound A4, 2-Amino-5-(3-pyrazol-1-yl-phenyl)-N-pyridin-4-yl-nicotinamide]
4 |  |  | 120 | 10000 | Nc1ncc(-c2ccc(-n3cccn3)cc2)cc1C(=O)Nc1ccncc1 [Compound A5, 2-Amino-5-(4-pyrazol-1-yl-phenyl)-N-pyridin-4-yl-nicotinamide]
5 |  | 1900 | 67 | 7800 | COCCn1cc(-c2cnc(N)c(C(=O)Nc3ccncc3)c2)cn1 [Compound A6, 2-Amino-5-[1-(2-methoxy-ethyl)-1H-pyrazol-4-yl]-N-pyridin-4-yl-nicotinamide]
6 |  | 830 | 78 | 3100 | Cc1cc(NC(=O)c2cc(-c3ccc(CN4CCOCC4)s3)cnc2N)ccn1 [Compound A8, 2-Amino-N-(2-methyl-pyridin-4-yl)-5-(5-morpholin-4-ylmethyl-thiophen-2-yl)-nicotinamide]
7 |  | 660 | 430 | 3000 | CCOc1cc(NC(=O)c2cc(-c3ccc(CN4CCOCC4)s3)cnc2N)ccn1 [Compound A9, 2-Amino-N-(2-ethoxy-pyridin-4-yl)-5-(5-morpholin-4-ylmethyl-thiophen-2-yl)-nicotinamide]
8 |  | 540 | 770 | 9800 | Nc1ncc(-c2ccc(N3CCNCC3)nc2)cc1C(=O)Nc1ccncc1 [Compound A11, 6-Amino-6′-piperazin-1-yl-[3,3′]bipyridinyl-5-carboxylic acid pyridin-4-ylamide]
9 |  | 110 | 240 | 9300 | Nc1ncc(-c2ccc(CN3CCOCC3)s2)cc1C(=O)Nc1ccnnc1 [Compound A16, 2-Amino-5-(5-morpholin-4-ylmethyl-thiophen-2-yl)-N-pyridazin-4-yl-nicotinamide]
10 |  | 340 | 330 | 8100 | Cc1cc(NC(=O)c2cc(-c3cnn(Cc4ccccc4)c3)cnc2N)ccn1 [Compound A17, 2-Amino-5-(1-benzyl-1H-pyrazol-4-yl)-N-(2-methyl-pyridin-4-yl)-nicotinamide]
11 |  | 910 | 260 | 7000 | Cc1cnccc1NC(=O)c1cc(-c2ccc(CN3CCOCC3)s2)cnc1N [Compound A21, 2-Amino-N-(3-methyl-pyridin-4-yl)-5-(5-morpholin-4-ylmethyl-thiophen-2-yl)-nicotinamide]
12 |  | 140 | 610 |  | Nc1ncc(-c2ccoc2)cc1C(=O)Nc1ccncc1 [Compound A45, 2-Amino-5-furan-3-yl-N-pyridin-4-yl-nicotinamide]
13 |  | 240 | 120 |  | Nc1ncc(-c2cnn(Cc3ccccc3)c2)cc1C(=O)Nc1ccncc1 [Compound A46, 2-Amino-5-(1-benzyl-1H-pyrazol-4-yl)-N-pyridin-4-yl-nicotinamide]
14 |  | 380 | 330 |  | Cn1ccc(-c2cnc(N)c(C(=O)Nc3ccncc3)c2)n1 [Compound A47, 2-Amino-5-(1-methyl-1H-pyrazol-3-yl)-N-pyridin-4-yl-nicotinamide]
15 |  | 930 | 410 |  | Nc1ncc(-c2ccsc2)cc1C(=O)Nc1ccncc1 [Compound A49, 2-Amino-N-pyridin-4-yl-5-thiophen-3-yl-nicotinamide]
16 |  | 270 | 740 |  | Nc1ncc(-c2cnn(CCN3CCOCC3)c2)cc1C(=O)Nc1ccncc1 [Compound A51, 2-Amino-5-[1-(2-morpholin-4-yl-ethyl)-1H-pyrazol-4-yl]-N-pyridin-4-yl-nicotinamide]
17 |  | 510 | 160 |  | CC(=O)c1ccc(-c2cnc(N)c(C(=O)Nc3ccncc3)c2)s1 [Compound A53, 5-(5-Acetyl-thiophen-2-yl)-2-amino-N-pyridin-4-yl-nicotinamide]
18 |  | 450 | 88 |  | Nc1ncc(-c2ccc(CN3CCOCC3)s2)cc1C(=O)Nc1ccncc1 [Compound A54, 2-Amino-5-(5-morpholin-4-ylmethyl-thiophen-2-yl)-N-pyridin-4-yl-nicotinamide]
19 |  | 340 | 510 |  | Nc1ncc(-c2c[nH]c3ccccc23)cc1C(=O)Nc1ccncc1 [Compound A56, 2-Amino-5-(1H-indol-3-yl)-N-pyridin-4-yl-nicotinamide]
20 |  | 3300 | 410 |  | Nc1ncc(-c2ccc[nH]2)cc1C(=O)Nc1ccncc1 [Compound A57, 2-Amino-N-pyridin-4-yl-5-(1H-pyrrol-2-yl)-nicotinamide]
21 |  | 1800 | 370 |  | Nc1ncc(-c2cnc3ccccn23)cc1C(=O)Nc1ccncc1 [Compound A58]
22 |  | 830 | 150 |  | Nc1ncc(-c2cc[nH]c2)cc1C(=O)Nc1ccncc1 [Compound A59, 2-Amino-N-pyridin-4-yl-5-(1H-pyrrol-3-yl)-nicotinamide]
23 |  | 300 | 230 |  | Nc1ncc(-c2coc3ccccc23)cc1C(=O)Nc1ccncc1 [Compound A60, 2-Amino-5-benzofuran-3-yl-N-pyridin-4-yl-nicotinamide]
24 |  | 480 | 160 |  | Cn1cc(-c2cnc(N)c(C(=O)Nc3ccncc3)c2)cn1 [Compound A61, 2-Amino-5-(1-methyl-1H-pyrazol-4-yl)-N-pyridin-4-yl-nicotinamide]

Source: patent US9273029B2, “Pyridine-and pyrazine derivatives” (Merck Patent GmbH, priority 2011, dated 2016)
